This is an account of results in PubChem BioAssay AID1745844 (Carcinogenic Potency Database (CPDB), 2022).

The subject of this data set is rodent lifetime carcinogenesis bioassay, tumor incidence TD50. The experiment in a line: chronic cancer bioassays in animals – CPDB, compiled studies (AID 1745844).

Where “and” joins values, the source holds several entries; their conditions need not be identical. Identical values can stand only once. Calls of active or inactive are those of the source. The rule behind the calls is not given here.

Regarding `CC(C)(c1ccc(O)cc1)c1ccc(O)cc1`, the carcinogen call is “negative (inactive)” (mouse, strain B6C3F1, females, in feed, site: any site (literature study), lesion: several types, types named in the paper, dosed 103 weeks, study length 107 weeks) and “negative (inactive)” (rat, strain Fischer 344, females, in feed, site: any site (literature study), lesion: several types, types named in the paper, dosed 103 weeks, study length 108 weeks). Further, the TD50 (as a rule, the 50% point of the dose-response relation for the toxic effect studied) is, setting by setting: (mouse, strain B6C3F1, females, in feed, site: liver, lesion: hepatocellular adenoma + hepatocellular carcinoma + neoplastic nodule, dosed 103 weeks, study length 107 weeks) 13100 mg/kg/day; (mouse, strain B6C3F1, females, in feed, site: lung, lesion: alveolar/bronchiolar adenoma + alveolar/bronchiolar carcinoma, dosed 103 weeks, study length 107 weeks) 41400 mg/kg/day; (mouse, strain B6C3F1, males, in feed, site: all sites, lesion: leukemia + lymphoma, dosed 103 weeks, study length 107 weeks) 445 mg/kg/day (inactive); (mouse, strain B6C3F1, males, in feed, site: all sites, lesion: lymphoma, dosed 103 weeks, study length 107 weeks) 508 mg/kg/day; (mouse, strain B6C3F1, males, in feed, site: any site (literature study), lesion: several types, types named in the paper, dosed 103 weeks, study length 107 weeks) 1.32e+06 mg/kg/day; (mouse, strain B6C3F1, males, in feed, site: pituitary gland, lesion: chromophobe carcinoma, dosed 103 weeks, study length 107 weeks) 6690 mg/kg/day. Besides, the TD50 runs as follows: (rat, strain Fischer 344, females, in feed, site: liver, lesion: hepatocellular adenoma + hepatocellular carcinoma + neoplastic nodule, dosed 103 weeks, study length 108 weeks) 595 mg/kg/day; (rat, strain Fischer 344, males, in feed, site: mammary gland, lesion: fibroadenoma, dosed 103 weeks, study length 108 weeks) 675 mg/kg/day (inactive).

With `OCc1ccco1`, the carcinogen call was “negative (inactive)” (mouse, strain B6C3F1, females, inhaled, site: any site (literature study), lesion: several types, types named in the paper, dosed 104 weeks, study length 104 weeks) and “e” (rat, strain Fischer 344, females, inhaled, site: nasal cavity, respiratory epithelium, lateral wall, lesion: adenoma, dosed 105 weeks, study length 105 weeks). Further, the TD50 is 41.8 mg/kg/day (mouse, strain B6C3F1, females, inhaled, site: lung, lesion: alveolar/bronchiolar adenoma + alveolar/bronchiolar carcinoma, dosed 104 weeks, study length 104 weeks); 263 mg/kg/day and 291 mg/kg/day (mouse, strain B6C3F1, males, inhaled, site: kidney, lesion: tubule adenoma + tubule carcinoma, dosed 104 weeks, study length 104 weeks); 538 mg/kg/day and 492 mg/kg/day (mouse, strain B6C3F1, males, inhaled, site: kidney, lesion: tubule adenoma, dosed 104 weeks, study length 104 weeks); 538 mg/kg/day and 744 mg/kg/day (mouse, strain B6C3F1, males, inhaled, site: kidney, lesion: tubule carcinoma, dosed 104 weeks, study length 104 weeks); 10.1 mg/kg/day (rat, strain Fischer 344, females, inhaled, site: all sites, lesion: mononuclear-cell leukemia, dosed 105 weeks, study length 105 weeks); 7.57 mg/kg/day (rat, strain Fischer 344, females, inhaled, site: any site (literature study), lesion: several types, types named in the paper, dosed 105 weeks, study length 105 weeks). Besides, the TD50 is, setting by setting: (rat, strain Fischer 344, females, inhaled, site: clitoral gland, lesion: adenoma + adenoma, bilateral + carcinoma + carcinoma, bilateral, dosed 105 weeks, study length 105 weeks) 27.8 mg/kg/day; (rat, strain Fischer 344, females, inhaled, site: clitoral gland, lesion: adenoma + adenoma, bilateral, dosed 105 weeks, study length 105 weeks) 35.7 mg/kg/day; (rat, strain Fischer 344, females, inhaled, site: kidney, lesion: tubule adenoma + tubule carcinoma, dosed 105 weeks, study length 105 weeks) 110 mg/kg/day and 161 mg/kg/day; (rat, strain Fischer 344, females, inhaled, site: kidney, lesion: tubule adenoma, dosed 105 weeks, study length 105 weeks) 113 mg/kg/day and 108 mg/kg/day; (rat, strain Fischer 344, females, inhaled, site: nasal cavity, respiratory epithelium, lesion: adenoma, dosed 105 weeks, study length 105 weeks) 161 mg/kg/day; (rat, strain Fischer 344, males, inhaled, site: Zymbal's gland, lesion: adenoma + carcinoma, dosed 102 weeks, study length 105 weeks) 17.4 mg/kg/day. Also, the TD50 (rat, strain Fischer 344, males, inhaled, site: any site (literature study), lesion: several types, types named in the paper, dosed 102 weeks, study length 105 weeks) is 1.46 mg/kg/day; the TD50 (rat, strain Fischer 344, males, inhaled, site: nasal cavity, respiratory epithelium, lateral wall + nasal cavity, respiratory epithelium, lesion: adenoma + carcinoma + squamous-cell carcinoma, dosed 102 weeks, study length 105 weeks) was 9.6 mg/kg/day; the TD50 (rat, strain Fischer 344, males, inhaled, site: nasal cavity, respiratory epithelium, lesion: squamous-cell carcinoma, dosed 102 weeks, study length 105 weeks) is 46.4 mg/kg/day.

`C=CC(=O)NCO`: the TD50 (mouse, strain B6C3F1, females, by gavage, site: Harderian gland + liver + lung + ovary, lesion: adenoma + adenoma, bilateral + hepatocellular adenoma + alveolar/bronchiolar adenoma + alveolar/bronchiolar carcinoma + granulosa-, dosed 103 weeks, study length 105 weeks) amounted to 27.8 mg/kg/day; the TD50 (mouse, strain B6C3F1, females, by gavage, site: Harderian gland, lesion: adenoma + adenoma, bilateral + carcinoma, dosed 103 weeks, study length 105 weeks) was 44.6 mg/kg/day; the TD50 (mouse, strain B6C3F1, females, by gavage, site: Harderian gland, lesion: adenoma + adenoma, bilateral, dosed 103 weeks, study length 105 weeks) was 55.5 mg/kg/day; the TD50 (mouse, strain B6C3F1, females, by gavage, site: any site (literature study), lesion: several types, types named in the paper, dosed 103 weeks, study length 105 weeks) came out at 30.9 mg/kg/day; the TD50 (mouse, strain B6C3F1, females, by gavage, site: liver, lesion: hepatocellular adenoma + hepatocellular carcinoma + neoplastic nodule, dosed 103 weeks, study length 105 weeks) stood at 74.8 mg/kg/day; the TD50 (mouse, strain B6C3F1, females, by gavage, site: liver, lesion: hepatocellular adenoma + hepatocellular carcinoma, dosed 103 weeks, study length 105 weeks) was 74.8 mg/kg/day. For the same compound, the TD50 was 66.9 mg/kg/day (mouse, strain B6C3F1, females, by gavage, site: liver, lesion: hepatocellular adenoma, dosed 103 weeks, study length 105 weeks); 111 mg/kg/day (mouse, strain B6C3F1, females, by gavage, site: lung, lesion: alveolar/bronchiolar adenoma + alveolar/bronchiolar carcinoma, dosed 103 weeks, study length 105 weeks); 119 mg/kg/day (mouse, strain B6C3F1, females, by gavage, site: ovary, lesion: granulosa-cell tumor, benign, dosed 103 weeks, study length 105 weeks); 13.3 mg/kg/day (mouse, strain B6C3F1, males, by gavage, site: Harderian gland + liver + lung, lesion: adenoma + hepatocellular adenoma + hepatocellular carcinoma + alveolar/bronchiolar adenoma + alveolar/bronchiolar carcinoma, dosed 103 weeks, study length 105 weeks); 17.4 mg/kg/day (mouse, strain B6C3F1, males, by gavage, site: Harderian gland, lesion: adenoma + carcinoma, dosed 103 weeks, study length 105 weeks); 17.5 mg/kg/day (mouse, strain B6C3F1, males, by gavage, site: Harderian gland, lesion: adenoma, dosed 103 weeks, study length 105 weeks). For the same compound, the TD50 is 22.3 mg/kg/day (mouse, strain B6C3F1, males, by gavage, site: any site (literature study), lesion: several types, types named in the paper, dosed 103 weeks, study length 105 weeks); 29.4 mg/kg/day (mouse, strain B6C3F1, males, by gavage, site: liver, lesion: hepatocellular adenoma + hepatocellular carcinoma + neoplastic nodule, dosed 103 weeks, study length 105 weeks); 29.4 mg/kg/day (mouse, strain B6C3F1, males, by gavage, site: liver, lesion: hepatocellular adenoma + hepatocellular carcinoma, dosed 103 weeks, study length 105 weeks); 50.2 mg/kg/day (mouse, strain B6C3F1, males, by gavage, site: liver, lesion: hepatocellular adenoma, dosed 103 weeks, study length 105 weeks); 63.4 mg/kg/day (mouse, strain B6C3F1, males, by gavage, site: liver, lesion: hepatocellular carcinoma, dosed 103 weeks, study length 105 weeks); 38.5 mg/kg/day (mouse, strain B6C3F1, males, by gavage, site: lung, lesion: alveolar/bronchiolar adenoma + alveolar/bronchiolar carcinoma, dosed 103 weeks, study length 105 weeks). Also, the TD50 reads like this: (mouse, strain B6C3F1, males, by gavage, site: lung, lesion: alveolar/bronchiolar adenoma, dosed 103 weeks, study length 105 weeks) 66 mg/kg/day; (mouse, strain B6C3F1, males, by gavage, site: lung, lesion: alveolar/bronchiolar carcinoma, dosed 103 weeks, study length 105 weeks) 75.1 mg/kg/day; (rat, strain Fischer 344, males, by gavage, site: any site (literature study), lesion: several types, types named in the paper, dosed 103 weeks, study length 105 weeks) 3120 mg/kg/day; (rat, strain Fischer 344, males, by gavage, site: skin, lesion: keratoacanthoma, dosed 103 weeks, study length 105 weeks) 13 mg/kg/day (inactive). Besides, the carcinogen call (rat, strain Fischer 344, females, by gavage, site: any site (literature study), lesion: several types, types named in the paper, dosed 103 weeks, study length 105 weeks) is “negative (inactive)”.

Turning to `NC(N)=S`, the carcinogen call reads like this: (rat, strain Fischer 344, males, i.p., site: liver, lesion: one or several types, types not named, dosed 60 weeks, study length 60 weeks) “negative (inactive)”; (rat, strain Osborne-Mendel, females, in feed, site: any site (literature study), lesion: malignant tumor, dosed 104 weeks, study length 104 weeks) “negative (inactive)”; (rat, strain Osborne-Mendel, females, in feed, site: liver, lesion: one or several types, types not named, dosed 104 weeks, study length 104 weeks) “negative (inactive)”; (rat, strain Osborne-Mendel, females, in feed, site: liver, lesion: one or several types, types not named, dosed 113 weeks, study length 113 weeks) “negative (inactive)”; (rat, strain Osborne-Mendel, males, in feed, site: any site (literature study), lesion: malignant tumor, dosed 104 weeks, study length 104 weeks) “negative (inactive)”; (rat, strain Osborne-Mendel, males, in feed, site: liver, lesion: one or several types, types not named, dosed 104 weeks, study length 104 weeks) “negative (inactive)”. For the setting “rat, strain Osborne-Mendel, males, in feed, site: liver, lesion: one or several types, types not named, dosed 113 weeks, study length 113 weeks”, the carcinogen call is “negative (inactive)”. In addition, the TD50 was 27.5 mg/kg/day (rat, strain Hebrew University, males, in drinking water, site: any site (literature study), lesion: several types, types named in the paper, dosed 113 weeks, study length 113 weeks); 93.5 mg/kg/day (rat, strain Hebrew University, males, in drinking water, site: auricular region, lesion: epidermoid carcinoma, dosed 113 weeks, study length 113 weeks); 93.5 mg/kg/day (rat, strain Hebrew University, males, in drinking water, site: eyelid, lesion: epidermoid carcinoma, dosed 113 weeks, study length 113 weeks); 50.8 mg/kg/day (rat, strain Hebrew University, males, several routes, site: any site (literature study), lesion: several types, types named in the paper, dosed 95 weeks, study length 95 weeks); 104 mg/kg/day (rat, strain Hebrew University, males, several routes, site: auricular region, lesion: epidermoid carcinoma, dosed 95 weeks, study length 95 weeks); 225 mg/kg/day (rat, strain Hebrew University, males, several routes, site: eyelid, lesion: epidermoid carcinoma, dosed 95 weeks, study length 95 weeks). For the same compound, the TD50 (rat, strain Osborne-Mendel, females, in feed, site: any site (literature study), lesion: benign tumor, dosed 104 weeks, study length 104 weeks) is 15 mg/kg/day (inactive); the TD50 (rat, strain Osborne-Mendel, females, in feed, site: any site (literature study), lesion: several types, types named in the paper, dosed 113 weeks, study length 113 weeks) was 16.2 mg/kg/day (inactive); the TD50 (rat, strain Osborne-Mendel, males, in feed, site: any site (literature study), lesion: benign tumor, dosed 104 weeks, study length 104 weeks) was 64.7 mg/kg/day (inactive); the TD50 (rat, strain Osborne-Mendel, males, in feed, site: any site (literature study), lesion: several types, types named in the paper, dosed 113 weeks, study length 113 weeks) is 46.1 mg/kg/day (inactive).
